Experimental data from patent US5776944A, “7-(4-aminomethyl-3-methyloxyiminopyrroplidin-1-yl)-1-cyclopropyl-6-flu oro-4-oxo-1,4-dihydro-1,8-naphthyridine-3-carboxylic acid and the process for the preparation thereof” (LG Chemical Ltd., priority 1994, dated 1998).
≈ marks a conversion by molar mass, not a printed value.

Legend:
Format in all cases: cell-based
Escherichia coli 10536 = experiment: In vitro antibacterial activity (MIC, agar dilution), Biological Example 1; conditions: 18 h; Escherichia coli 10536, Table 25; read-out: Minimum Inhibitory Concentration
Escherichia coli 851E = experiment: as above; conditions: 18 h, Table 25, read-out: Minimum Inhibitory Concentration
[1] = system: Staphylococcus epidermidis 178; experiment: as above; conditions: 18 h; Staphylococcus epidermidis 178, Table 25; read-out: Minimum Inhibitory Concentration
[2] = system: Escherichia coli TEM5 3739E; experiment: microbe, parasite or virus in culture; conditions: TEM53739E, 18 h, read-out: Minimum Inhibitory Concentration
[3] = system: Salmonella typimurium 14028; experiment: In vitro antibacterial activity (MIC, agar dilution), Biological Example 1; conditions: 18 h; Salmonella typimurium 14028, Table 25; read-out: Minimum Inhibitory Concentration
[4] = system: Escherichia coli TEM3 3455E; experiment: microbe, parasite or virus in culture; conditions: TEM33455E, 18 h, read-out: Minimum Inhibitory Concentration
Enterobacter cloacae P99 = experiment: microbe, parasite or virus in culture; conditions: P99, 18 h, read-out: Minimum Inhibitory Concentration
[5] = system: Staphylococcus aureus giorgio; experiment: In vitro antibacterial activity (MIC, agar dilution), Biological Example 1; conditions: 18 h, Table 25, read-out: Minimum Inhibitory Concentration
[6] = system: Klebsiella aerogenes 1976E; experiment: as above; conditions: 18 h, Table 25, read-out: Minimum Inhibitory Concentration
[7] = system: Streptococcus faecalis 29212; experiment: as above; conditions: Enterococcus faecalis, 18 h; Streptococcus faecalis 29212, Table 25; read-out: Minimum Inhibitory Concentration
[8] = system: Staphylococcus aureus 6538p; experiment: as above; conditions: 18 h, Table 25, read-out: Minimum Inhibitory Concentration
Bacillus subtilis 6633 = experiment: as above; conditions: 18 h; Bacillus subtilis 6633, Table 25; read-out: Minimum Inhibitory Concentration
[9] = system: Escherichia coli TEM9 2639E; experiment: microbe, parasite or virus in culture; conditions: TEM92639E, 18 h, read-out: Minimum Inhibitory Concentration
Micrococcus luteus 9341 = experiment: In vitro antibacterial activity (MIC, agar dilution), Biological Example 1; conditions: 18 h; Micrococcus luteus 9341, Table 25; read-out: Minimum Inhibitory Concentration
[10] = system: Pseudomonas aeruginosa 1912E; experiment: as above; conditions: 18 h; Pseudomonas aeruginosa 1912E, Table 25; read-out: Minimum Inhibitory Concentration
[11] = system: Staphylococcus aureus 241; experiment: as above; conditions: 18 h; Staphylococcus aureus 241, Table 25; read-out: Minimum Inhibitory Concentration
Escherichia coli 3190Y = experiment: as above; conditions: 18 h, Table 25, read-out: Minimum Inhibitory Concentration
[12] = system: Citrobacter diversus 2046E; experiment: as above; conditions: Citrobacter koseri, 18 h, Table 25, read-out: Minimum Inhibitory Concentration
Staphylococcus aureus 77 = experiment: as above; conditions: 18 h; Staphylococcus aureus 77, Table 25; read-out: Minimum Inhibitory Concentration
[13] = system: Klebsiella aerogenes 1082E; experiment: as above; conditions: 18 h, Table 25, read-out: Minimum Inhibitory Concentration
[14] = system: Acinetobacter calcoaceticus 15473; experiment: as above; conditions: 18 h; Acinetobacter calcoaceticus 15473, Table 25; read-out: Minimum Inhibitory Concentration
[15] = system: Enterobacter cloacae 1194E; experiment: microbe, parasite or virus in culture; conditions: 18 h, read-out: Minimum Inhibitory Concentration
[16] = system: Staphylococcus epidermidis 887E; experiment: In vitro antibacterial activity (MIC, agar dilution), Biological Example 1; conditions: 18 h, Table 25, read-out: Minimum Inhibitory Concentration
[17] = system: Pseudomonas aeruginosa 10145; experiment: as above; conditions: 18 h; Pseudomonas aeruginosa 10145, Table 25; read-out: Minimum Inhibitory Concentration

SMILES | MIC (Escherichia coli 10536) [ng/mL] | MIC (Escherichia coli 851E) [µg/mL] | MIC [1] [µg/mL] | MIC [2] [µg/mL] | MIC [3] [µg/mL] | MIC [4] [µg/mL] | MIC (Enterobacter cloacae P99) [µg/mL] | MIC [5] [ng/mL] | MIC [6] [µg/mL] | MIC [7] [µg/mL] | MIC [8] [ng/mL] | MIC (Bacillus subtilis 6633) [ng/mL] | MIC [9] [µg/mL] | MIC (Micrococcus luteus 9341) [µg/mL] | MIC [10] [µg/mL] | MIC [11] [µg/mL] | MIC (Escherichia coli 3190Y) [ng/mL] | MIC [12] [µg/mL] | MIC (Staphylococcus aureus 77) [µg/mL] | MIC [13] [µg/mL] | also measured
NCC1CN(c2cc3c(cc2F)c(=O)c(C(=O)O)cn3C2CC2)CC1=NOCc1ccccc1 (stereo not drawn) [Example 12, 7-(4-animomethyl-3-benzyloxyimino-pyrrolidin-1-yl)-1-cyclcopropyl-6-fluoro-1,4-dihydro-4-oxoquinoline-3-carboxylic acid] | ≤ 8 | 0.063 (≈ 0.136 µM) | 0.5 (≈ 1.08 µM) | 0.25 (≈ 0.538 µM) | 0.25 (≈ 0.538 µM) | 0.5 (≈ 1.08 µM) | 0.063 (≈ 0.136 µM) | ≤ 8 | 1 (≈ 2.15 µM) | 0.031 (≈ 0.0667 µM) | ≤ 8 | ≤ 8 | 0.25 (≈ 0.538 µM) | 0.13 (≈ 0.28 µM) | 2 (≈ 4.31 µM) | 1 (≈ 2.15 µM) | 16 (≈ 0.0344 µM) | 0.13 (≈ 0.28 µM) | ≤ 0.008 | 0.13 (≈ 0.28 µM) | MIC [14]: 0.016 µg/mL (≈ 0.0344 µM); MIC [15]: 0.13 µg/mL (≈ 0.28 µM); MIC [16]: ≤ 8 ng/mL; MIC [17]: 0.5 µg/mL (≈ 1.08 µM)
NCC1CN(c2c(F)c(N)c3c(=O)c(C(=O)O)cn(C4CC4)c3c2F)CC1=NOCc1ccccc1 (stereo not drawn) [Example 56, 5-amino-7-(4-aminomethyl-3-benzyloxylmino-pyrrolidin-1-yl)-1-cyclopropyl6,8-difluoro-1,4-dihydro-4-oxoquinoline-3-carboxylic acid] | ≤ 8 | ≤ 0.008 | 2 (≈ 4.02 µM) | 0.25 (≈ 0.503 µM) | 0.031 (≈ 0.0623 µM) | 0.5 (≈ 1.01 µM) | ≤ 0.008 | ≤ 8 | 0.5 (≈ 1.01 µM) | 0.016 (≈ 0.0322 µM) | ≤ 8 | ≤ 8 | 0.063 (≈ 0.127 µM) | 0.063 (≈ 0.127 µM) | 2 (≈ 4.02 µM) | 2 (≈ 4.02 µM) | ≤ 8 | 0.016 (≈ 0.0322 µM) | ≤ 0.008 | 0.016 (≈ 0.0322 µM) | MIC [14]: ≤ 0.008 µg/mL; MIC [15]: 0.031 µg/mL (≈ 0.0623 µM); MIC [16]: ≤ 8 ng/mL; MIC [17]: 2 µg/mL (≈ 4.02 µM)
CC(C)ON=C1CN(c2nc3c(cc2F)c(=O)c(C(=O)O)cn3C2CC2)CC1CN (stereo not drawn) [Example 97] | ≤ 8 | 0.031 (≈ 0.0743 µM) | 1 (≈ 2.4 µM) | 0.063 (≈ 0.151 µM) | 0.13 (≈ 0.311 µM) | 0.13 (≈ 0.311 µM) | ≤ 0.008 | ≤ 8 | 0.25 (≈ 0.599 µM) | 0.063 (≈ 0.151 µM) | ≤ 8 | ≤ 8 | 0.031 (≈ 0.0743 µM) | 0.063 (≈ 0.151 µM) | 1 (≈ 2.4 µM) | 2 (≈ 4.79 µM) | ≤ 8 | 0.063 (≈ 0.151 µM) | 0.016 (≈ 0.0383 µM) | 0.13 (≈ 0.311 µM) | MIC [14]: 0.016 µg/mL (≈ 0.0383 µM); MIC [15]: 0.063 µg/mL (≈ 0.151 µM); MIC [16]: ≤ 8 ng/mL; MIC [17]: 1 µg/mL (≈ 2.4 µM)
CC(C)CON=C1CN(c2nc3c(cc2F)c(=O)c(C(=O)O)cn3C2CC2)CC1CN (stereo not drawn) [Example 102] | ≤ 8 | 0.063 (≈ 0.146 µM) | 1 (≈ 2.32 µM) | 0.25 (≈ 0.579 µM) | 0.25 (≈ 0.579 µM) | 0.5 (≈ 1.16 µM) | 0.031 (≈ 0.0718 µM) | ≤ 8 | 0.5 (≈ 1.16 µM) | 0.063 (≈ 0.146 µM) | 16 (≈ 0.0371 µM) | ≤ 8 | 0.063 (≈ 0.146 µM) | 0.063 (≈ 0.146 µM) | 2 (≈ 4.64 µM) | 4 (≈ 9.27 µM) | ≤ 8 | 0.13 (≈ 0.301 µM) | 0.016 (≈ 0.0371 µM) | 0.25 (≈ 0.579 µM) | MIC [14]: 0.063 µg/mL (≈ 0.146 µM); MIC [15]: 0.25 µg/mL (≈ 0.579 µM); MIC [16]: ≤ 8 ng/mL; MIC [17]: 2 µg/mL (≈ 4.64 µM)
